Experimental data published in patent publication US9506013B2 (priority 2010, dated 2016).
“And” between values parts separate entries of the source, which are not always exact repeats. Equal entries are not always repeated.

Columns and labels:
Pseudomonas aeruginosa = type: cell-based
Staphylococcus aureas = type: cell-based
[1] = system: Pseudomonas aeruginosa and Staphylococcus aureas; type: cell-based
[2] = type: physicochemical

Compound | % Kill, 400 ppm (Pseudomonas aeruginosa) [%] | % Kill, DI water (Pseudomonas aeruginosa) [%] | % Kill, 400 ppm (Staphylococcus aureas) [%] | % Kill, DI water (Staphylococcus aureas) [%] | Overall Rating [1] | % Separation 1 h [2] | % Separation 24 h [2] | Adjuvant 1 h, emulsion stability, mL separation [mL] | Anionic 1 h, emulsion stability, mL separation [mL] | Nonionic 1 h, emulsion stability, mL separation [mL] | Adjuvant 24 h, emulsion stability, mL separation [mL] | Anionic 24 h, emulsion stability, mL separation [mL] | Nonionic 24 h, emulsion stability, mL separation [mL]
C12 6EO eFAME [C12-9] | 23.2 | 32.6 | 3.2 | 36.2 | good |  |  |  |  |  |  |  | 
C10 6EO eFAME [C10-9] | 29.1 | 37.2 | 23.4 | 38.4 | good |  |  |  |  |  |  |  | 
C10 24EO eFAME [C10-11] | 21.3 | 28.9 | 30.9 | 42.5 | good |  |  |  |  |  |  |  | 
C10 24EO eFAME Sulfonate [C10-30] |  |  |  |  |  | 3.8 C and 2.8 C | 4 C and 3 C | 0 | 0 | 0.25 | 0 | 0 | 0.25
CCC(CCCCCCCCC(=O)OCCOC)S(=O)(=O)[O-].[Na+] (centres unmarked) [C12-33, C12 eFAME Sulfonate] |  |  |  |  |  | 3.2 C and 3.9 C | 4 C and 4.1 C | 0 | 0 | 0.25 | 0 | 0 | 0.25
C12 6EO eFAME Sulfonate [C12-10] |  |  |  |  |  | 4 C and 3.8 C | 4.1 C and 4 C | 0 | 0 |  | 0 | 0 | 0.25
COCCOC(=O)CCCCCCCCC(CCCCCCCC(=O)OCCOC)S(=O)(=O)[O-].[Na+] (centres unmarked) [Mix-61, C18 eFAME Sulfonate] |  |  |  |  |  | 3.8 C and 3.7 C | 4 C and 3.9 C |  |  |  |  |  | 
C12 27EO eFAME [C12-11] | 30.1 | 34.9 | 36.2 | 42.7 | good |  |  |  |  |  |  |  | 
C12 27EO eFAME Sulfonate [C12-32] |  |  |  |  |  | 3 C and 2.9 C | 3.2 C | 0 | 0 | 0.5 | 0 | 0 | 0.5
